The values that follow come from patent publication US20210261475A1, “UREA-BASED COMPOSITION COMPRISING ELEMENTAL SULPHUR AND METHOD FOR THE MANUFACTURE THEREOF” (YARA INTERNATIONAL ASA, priority 2018, published 2021).

“Also recorded” adds a separate entry of the source.

Holding throughout (format): physicochemical
Data set [1] in a line: Volatilization measurements (ammonia release, 2 L diffusion kit, Draeger tube). To be noted: YaraVera Amidas product comprising 462 ppm nBTPT, treated with stabilizer (FIG. 1, Table 1). An excerpt:
Through the lid, a […] tube is placed for the measurement of vol % ammonia. The […] tube turns from yellow to bleu/purple when ammonia is absorbed by the tube. The amount of vol % ammonia released can be followed in time. Experiment 1 defines the problem.

A short description of data set [2]: nBTPT stability on YaraVera Amidas (UAS) product during storage, HPLC analysis of nBTPT content. How it is done:
For lab scale experiments, 1.2 kg of solid fertilizer material was added to a lab scale drum. […] A residence time of 10 minutes was applied and the rotating speed of the drum was consequently the same in each experiment. […] Before use, the moisture-repellent coating was preheated to 80° C. Larger scale experiments with amounts up to 40 kg of fertilizer material were performed in a concrete mixer. The samples were stored under several conditions, dependent on the type of samples: • Bagged at room temperature (18-25° C.) • Bagged at 40° C. • Open to air at room temperature (18-25° C.) […]

Another data set can be described thus: pH of MgSO4 grades.

Regarding `[O]=[Ca]` [CaO, calcium oxide], the Ammonia release result in data set [1] is given as “producing ammonia”.

For the molecule `O=S(=O)([O-])[O-].[Ca+2]` [CaSO4], the Ammonia release result in data set [1] was “no ammonia release”.

`[O]=[Mg]` [MgO, magnesium oxide, reference compound]: the Ammonia release entry in data set [1] is reported as “producing ammonia”. Moreover, the “Stability of nBTPT (stabilizing effect)” value in data set [2] (YaraVera Amidas with 462 ppm nBTPT, MgSO4/MgO combinations (FIG. 4)) was “more effective than CaO”. In turn, `O=S(=O)([O-])[O-].[Mg+2]` [MgSO4 99.5%] had a pH in the data set “pH of MgSO4 grades” of 8.5. For the molecule `O=S(=O)([O-])[O-].[Mg+2]` [MgSO4 99.999%], in the data set “pH of MgSO4 grades”, the pH came to 6.1. Turning to `O=S(=O)([O-])[O-].[Mg+2]` [MgSO4, magnesium sulphate], the Ammonia release entry in data set [1] is “no ammonia release; also recorded: no ammonia is generated”. Also, the “Stability of nBTPT (stabilizing effect)” value in data set [2] (UAS with 462 ppm nBTPT, open to air at room temperature 40 days (FIG. 2A) and in bags at 40° C. 8 days (FIG. 2B)) is on record as “comparable with the effect of the prior art compound (CaO)”. Moreover, in data set [2] (more than 1 weight % magnesium sulphate in the composition), the Stabilizing effect result is on record as “did not produce a proportionally better stabilizing effect”.

Take `O=S(=O)([O-])[O-].[Na+].[Na+]` [Na2SO4, reference compound]: the “Stability of nBTPT (stabilizing effect)” value in data set [2] (YaraVera Amidas with 462 ppm nBTPT, open plastic containers at room temperature for 21 days (FIG. 3)) is recorded as “negative effect on the stability of nBTPT”.
